The values that follow come from article PMC5086919, “Antileukemic Scalarane Sesterterpenoids and Meroditerpenoid from Carteriospongia (Phyllospongia) sp., Induce Apoptosis via Dual Inhibitory Effects on Topoisomerase II and Hsp90” (Scientific Reports, 2016).

Molecules are shown by their SMILES. Values after ≈ are worked out from the molar mass of the structure shown.

For one experiment, the system named is γH2AX in Molt 4 cells. Kind of experiment: Western blot of γH2AX (DNA damage biomarker). Type of experiment: cell-based, human. The settings on record: 0, 0.0625, 0.125 and 0.25 μg/mL, 24 h. An excerpt:
The ability of Topo II to generate DNA damage in the presence of Topo II-targeting agents led to the hypothesis that an important determinant of drug sensitivity was related to the overall level of Topo II[17]. […] Such findings encouraged us to evaluate the effect of the isolates on Topo II activity. In order to confirm whether the DNA damage-induced by the isolated sesterterpenoids involved the inhibition of Topo II activity, a cell-free DNA cleavage assay using an enzyme-mediated negatively supercoiled pHOT1 plasmid DNA was applied. […] These marine terpenoids suppressed Topo II activity, resulting in the inhibition of supercoiled DNA relaxation in a dose-dependent manner (Fig. 5A). […] To determine whether the apoptotic mechanism of these compounds affects γH2AX (as a biomarker of DNA damage) induction, Western blot analysis was employed to examine the activation of γH2AX.
Cell lysates were prepared by treating the cells for 30 min in RIPA lysis buffer, 1% Nonidet P-40, 0.5% sodium deoxycholate, 0.1% sodium dodecyl sulphate (SDS), 1 mM sodium orthovanadate, 100 μg/mL phenylmethylsulfonyl fluoride and 30 μg/mL aprotinin) (all chemicals were from Sigma)[38]. The lysates were centrifuged at 20,000 × g for 30 min, and the protein concentration in the supernatant was determined using a BCA protein assay kit (Pierce). Equal amounts of proteins were respectively separated by 7.5%, 10% or 12% of SDS-polyacrylamide gel electrophoresis and then were electrotransferred to a PVDF membrane. The membrane was blocked with a solution containing 5% non-fat dry milk TBST buffer (20 mM Tris-HCl, pH 7.4, 150 mM NaCl and 0.1% Tween 20) for 1 h and washed with TBST buffer. The protein expressions were monitored by immunoblotting using specific antibodies. These proteins were detected by an enhanced chemiluminescence kit (Pierce).

The subject of the next experiment is LNCaP cells. The experiment can be described thus: MTT antiproliferative assay, prostate cancer LNCaP cells. The following applies: Homo sapiens, 72 h, read-out: IC50, cytotoxicity, Prostate LNCaP. (Tetrazolium dyes change colour on reduction, which living cells bring about.)

From the text for LNCaP cells: Several cancer cell lines including leukemia K562, Molt 4, and HL 60 cells, prostate cancer LNCaP cells, colon cancer DLD-1 cells and breast cancer T-47D cells were used to evaluate the antiproliferative activity.
The cell lines were obtained from the American Type Culture Collection (ATCC, Manassas, VA, USA). […] Dimethyl sulfoxide (DMSO), 3-(4,5-dimethylthiazol-2-yl)-2,5-diphenyl-tetrazolium bromide (MTT) and all other chemicals were purchased from Sigma-Aldrich (St. Louis, MO, USA).

By IC50 is commonly meant the point on the concentration scale where inhibition reaches its midpoint. Turning to `CC[C@@]1(C)CCC[C@]2(C)[C@H]3C[C@@H](OC(=O)C[C@@H](C)O)[C@]4(C)[C@@H](C=O)C(C(C)=O)=CC[C@H]4[C@]3(C)CC[C@@H]12` (relative stereo) [Compound 1, 12β-(3′β-hydroxybutanoyloxy)-20,24-dimethyl-24-oxo-scalara-16-en-25-al], the “expression of γH2AX” value in the experiment with γH2AX in Molt 4 cells was “significantly enhanced the expression of γH2AX in a dose-dependent manner”. Moreover, the 50% inhibitory concentration (IC50) in the experiment with LNCaP cells was 13.9 µg/mL (≈ 27.7 µM).
